Reference: patent US5561133A, “Thymidylate synthase inhibiting quinazolinones” (British Technology Group Limited, priority 1992, dated 1996)

Experiments:
[1] = particularly liver and kidneys; cited from earlier work
[2] = test system: human breast,ovarian and liver cancer; conditions: clinical, humans; cited from earlier work
[3] = test system: MCF-7 cell line; assay: inhibition of growth of the human breast cancer cell line MCF-7 in cell culture; assay type: cell-based; conditions: MCF7, MCF-7 cell culture, read-out: IC50 against the MCF-7 cell line
Text: (c) An assay which determines the ability of a test compound to inhibit the growth of the human breast cancer cell line MCF-7 in cell culture. The test may be similar to that described by Lippman et al (Cancer Res., 1976, 36, 4595).

[4] = test system: L1210 cell line; assay: inhibition of growth of the leukaemia cell line L1210 in cell culture; assay type: cell-based; conditions: Mus musculus, read-out: IC50 against the L1210 cell line
Text: (b) An assay which determines the ability of a test compound to inhibit the growth of the leukaemia cell line L1210 in cell culture. The test may be similar to that described in UK Patent Specification No. 2065653B; and […]

SMILES	toxicity in humans [1]	activity against human breast, ovarian and liver cancer [2]	IC50 [3] [nM]	IC50 [4] [nM]
C#CCN(Cc1ccc2nc(N)[nH]c(=O)c2c1)c1ccc(C(=O)N[C@@H](CCC(=O)O)C(=O)O)cc1 [CB3717]	symptoms of toxicity in humans, particularly in relation to the liver and kidneys	promising activity		
C#CCN(Cc1ccc2nc(C)[nH]c(=O)c2c1)c1ccc(C(=O)N[C@@H](CCC(=O)N(C)[C@@H](CCC(=O)O)C(=O)O)C(=O)O)cc1 [Example 1, N-p-[N-(3,4-Dihydro-2-methyl-4-oxoquinazolin-6-ylmethyl)-N-(prop-2-ynyl)amino]benzoyl-L-γ-glutamyl-N-methyl-L-glutamic acid]			300	240
